Data as given in patent publication US11229208B2, “Pesticidally active bi- or tricyclic heterocycles with sulfur containing substituents” (priority 2013, dated 2022).
“And” between values parts separate entries of the source, which are not always exact repeats. Equal values may be shown once. Read-outs that look alike come from different tables or passages of the source.

Key:
[1] = tested on: Plutella xylostella (Diamond Back Moth); experiment: Plutella xylostella, treated artificial diet, L2 larvae; assay type: in vivo; conditions: 120 h, application rate 200 ppm, 5 days after infestation
Experimental: Example B3: Plutella xylostella (Diamond Back Moth)
(§1) 24-well microtiter plates with artificial diet were treated with aqueous test solutions prepared from 10,000 ppm DMSO stock solutions by pipetting. After drying, the plates were infested with L2 larvae (10 to 15 per well). The samples were assessed for mortality 5 days after infestation.

[2] = tested on: Diabrotica balteata (Corn Root Worm); experiment: Diabrotica balteata, treated artificial diet, L2 larvae; assay type: in vivo; conditions: 120 h, read-out: effect in at least one of the two categories (mortality or growth inhibition)
Experimental: Example B4: Diabrotica balteata (Corn Root Worm)
as §1, with “(6” for “(10”, “10” for “15”, “mortality and growth inhibition in comparison to untreated samples” for “mortality”
The following compounds gave an effect of at least 80% in at least one of the two categories (mortality or growth inhibition) at an application rate of 200 ppm: […]

[3] = tested on: Myzus persicae (Green Peach Aphid); experiment: Myzus persicae, sprayed sunflower leaf discs, mixed-age population; assay type: in vivo; conditions: foliar, 144 h, application rate 200 ppm, 6 days after infestation
Experimental: Example B5: Myzus persicae (Green Peach Aphid)
Sunflower leaf discs were placed on agar in a 24-well microtiter plate and sprayed with aqueous test solutions prepared from 10,000 ppm DMSO stock solutions. After drying, the leaf discs were infested with an aphid population of mixed ages. The samples were assessed for mortality 6 days after infestation.

[4] = tested on: Myzus persicae (Green Peach Aphid); experiment: Myzus persicae systemic test, roots of infested pea seedlings in test solution; assay type: in vivo; conditions: 144 h, test rate 24 ppm, 6 days after placing seedlings in test solutions
Experimental: Example B6: Myzus persicae (Green Peach Aphid)
Roots of pea seedlings infested with an aphid population of mixed ages were placed directly in the aqueous test solutions prepared from 10,000 DMSO stock solutions. The samples were assessed for mortality 6 days after placing seedlings in test solutions.

[5] = tested on: Bemisia tabaci (Cotton White Fly); experiment: Bemisia tabaci, sprayed cotton leaf discs, adult white flies; assay type: in vivo; conditions: foliar, 144 h, application rate 200 ppm, 6 days after incubation
Experimental: Example B10: Bemisia tabaci (Cotton White Fly)
Cotton leaf discs were placed on agar in 24-well microtiter plates and sprayed with aqueous test solutions prepared from 10,000 ppm DMSO stock solutions. After drying the leaf discs were infested with adult white flies. The samples were checked for mortality 6 days after incubation.

[6] = tested on: Myzus persicae (Green Peach Aphid); experiment: Myzus persicae, sucrose solution feeding through Parafilm; assay type: in vivo; conditions: 120 h, test rate 12 ppm, 5 days after infestation
Experimental: Example B7: Myzus persicae (Green Peach Aphid)
Test compounds from 10,000 ppm DMSO stock solutions were applied by pipette into 24-well microtiter plates and mixed with sucrose solution. The plates were closed with a stretched Parafilm. A plastic stencil with 24 holes was placed onto the plate and infested pea seedlings were placed directly on the Parafilm. The infested plate was closed with a gel blotting paper and another plastic stencil and then turned upside down. The samples were assessed for mortality 5 days after infestation.

[7] = tested on: Spodoptera littoralis (Egyptian Cotton Leaf Worm); experiment: Spodoptera littoralis systemic test, lettuce grown on treated agar, infested with eggs; assay type: in vivo; conditions: 144 h, test rate 12.5 ppm, assessed 6 days after infestation, in comparison to untreated samples, read-out: effect in at least one of the three categories (mortality, anti-feedancy, or growth inhibition)
Description: Example B1: Spodoptera littoralis (Egyptian Cotton Leaf Worm)
Test compounds were applied by pipette from 10,000 ppm DMSO stock solutions into 24-well plates and mixed with agar. Lettuce seeds were placed on the agar and the multi well plate was closed by another plate which contains also agar. After 7 days the roots have absorbed the compound and the lettuce has grown into the lid plate. The lettuce leafs were now cut off into the lid plate. Spodoptera eggs were pipetted through a plastic stencil on a humid gel blotting paper and the plate closed with it. The samples were assessed for mortality, anti-feedant effect and growth inhibition in comparison to untreated samples 6 days after infestation.
The following compounds gave an effect of at least 80% in at least one of the three categories (mortality, anti-feedancy, or growth inhibition) at a test rate of 12.5 ppm: […]

[8] = tested on: Spodoptera littoralis (Egyptian Cotton Leaf Worm); experiment: Spodoptera littoralis, sprayed cotton leaf discs, L1 larvae; assay type: in vivo; conditions: foliar, 72 h, read-out: mortality (control)
Experimental: Example B2: Spodoptera littoralis (Egyptian Cotton Leaf Worm)
Cotton leaf discs were placed on agar in 24-well microtiter plates and sprayed with aqueous test solutions prepared from 10,000 ppm DMSO stock solutions. After drying the leaf discs were infested with five L1 larvae. The samples were assessed for mortality 3 days after infestation.

[9] = tested on: Tetranychus urticae (Two-Spotted Spider Mite); experiment: Tetranychus urticae, sprayed bean leaf discs, mixed-age mite population; assay type: in vivo; conditions: foliar, 192 h, read-out: mortality on mixed population (mobile stages)
Experimental: Example B11: Tetranychus urticae (Two-Spotted Spider Mite)
Bean leaf discs on agar in 24-well microtiter plates were sprayed with aqueous test solutions prepared from 10,000 ppm DMSO stock solutions. After drying the leaf discs were infested with a mite population of mixed ages. The samples were assessed for mortality on mixed population (mobile stages) 8 days after infestation.

[10] = application rate 200 ppm, 5 days after infestation, in comparison to untreated samples
[11] = application rate 200 ppm, 3 days after infestation

For CCS(=O)(=O)c1cc(C(F)(F)F)cnc1-c1nc2cc(C(F)(F)F)ncn2n1 [Compound V16.03, 2-[3-ethylsulfonyl-5-(trifluoromethyl)-2-pyridyl]-7-(trifluoromethyl) [1,2,4]triazolo[1,5-c]pyrimidine], the mortality at 200 ppm [1] was at least 80%, the percent effect (mortality or growth inhibition) at 200 ppm [2, 10] was at least 80% and the mortality at 200 ppm [3] was at least 80%. For the same molecule, the mortality at 24 ppm [4] was at least 80%.
Work on CCS(=O)(=O)c1scnc1-c1nc2cc(C(F)(F)F)ncc2n1C [Compound V13.05, 5-ethylsulfonyl-4-[3-methyl-6-(trifluoromethyl)imidazo[4,5-c]pyridin-2-yl]thiazole] yielded a mortality at 200 ppm [1] of at least 80%, a percent effect (mortality or growth inhibition) at 200 ppm [2, 10] of at least 80% and a mortality at 200 ppm [5] of at least 80%.
With CC1Cc2c(C(F)(F)F)ccc(-c3nc4cc(C(F)(F)F)cnc4n3C)c2S1(=O)=O (stereo not shown) the melting point was 206 °C.
With CCS(=O)(=O)c1nc(C(F)(F)F)ccc1-c1cn2ccc(C(F)(F)F)cc2n1 the melting point was 188 to 190 °C.
For CCSc1cc(C(F)(F)F)cnc1-c1nc2cc(Cl)nnc2n1C, the melting point was 156 to 158 °C.
CCS(=O)(=O)c1cc(C(F)(F)F)cnc1-c1nc2cc(Cl)nnc2n1C [Compound V12.17, 3-chloro-6-[3-ethylsulfonyl-5-(trifluoromethyl)-2-pyridyl]-7-methyl-imidazo[4,5-c]pyridazine] showed a mortality at 200 ppm [3] of at least 80%, a mortality at 24 ppm [4] of at least 80% and a mortality at 12 ppm [6] of at least 80%.
Molecule CCS(=O)(=O)c1cc(C(F)(F)F)cnc1-c1nc2cc(C(F)(F)F)ncn2c1C [Compound V16.01, 2-[3-ethylsulfonyl-5-(trifluoromethyl)-2-pyridyl]-3-methyl-7-(trifluoromethyl)imidazo[1,2-c]pyrimidine] has a percent effect (mortality, anti-feedancy or growth inhibition) at 12.5 ppm [7] of at least 80%, a mortality at 200 ppm [8, 11] of at least 80% and a mortality at 200 ppm [1] of at least 80%. For the same molecule, the mortality at 200 ppm [3] was at least 80% and the mortality at 12 ppm [6] was at least 80%.
CCS(=O)(=O)c1cc(C(F)(F)F)cnc1-c1nc2nc(C(F)(F)F)cnc2n1C showed a melting point of 162 to 165 °C.
For CCS(=O)(=O)c1nsnc1-c1nc2cc(C(F)(F)F)cnc2n1C, the melting point was 144 to 146 °C.
Molecule CCS(=O)(=O)c1cc(C(F)(F)F)cnc1-c1nc2cc(Br)ncc2n1C [Compound V12.20, 6-bromo-2-[3-ethylsulfonyl-5-(trifluoromethyl)-2-pyridyl]-3-methyl-imidazo[4,5-c]pyridine] has a mortality at 200 ppm [8, 11] of at least 80%, a percent effect (mortality or growth inhibition) at 200 ppm [2, 10] of at least 80% and a mortality at 200 ppm [3] of at least 80%. The mortality at 24 ppm [4] was at least 80%, the mortality at 12 ppm [6] was at least 80% and the mortality at 200 ppm [5] was at least 80%.
Work on CCS(=O)(=O)c1nc(C(F)(F)F)sc1-c1nc2cc(C(F)(F)F)ncc2n1C [Compound V14.05, 4-Ethylsulfonyl-5-[3-methyl-6-(trifluoromethyl)imidazo[4,5-c]pyridin-2-yl]-2-(trifluoromethyl)thiazole] yielded a mortality at 200 ppm [3] of at least 80%, a mortality at 24 ppm [4] of at least 80% and a mortality at 12 ppm [6] of at least 80%.
CCS(=O)(=O)c1cc(OC(F)F)cnc1-c1nc2cc(C(F)(F)F)ncc2n1C gave a melting point of 146 to 148 °C.
In the case of CCS(=O)(=O)c1cc(C(F)(F)F)cnc1-c1cn2cnc(C(F)(F)F)cc2n1 [Compound V16.02, 2-[3-ethylsulfonyl-5-(trifluoromethyl)-2-pyridyl]-7-(trifluoromethyl)imidazo[1,2-c]pyrimidine], the percent effect (mortality, anti-feedancy or growth inhibition) at 12.5 ppm [7] is reported as at least 80%, the mortality at 200 ppm [8, 11] is reported as at least 80% and the mortality at 200 ppm [1] is reported as at least 80%. For the same molecule, the percent effect (mortality or growth inhibition) at 200 ppm [2, 10] was at least 80%, the mortality at 200 ppm [3] was at least 80% and the mortality at 200 ppm ([9]; application rate 200 ppm, 8 days after infestation) was at least 80%.
Molecule CCS(=O)(=O)c1nc(C(F)(F)F)ccc1-c1nc2cc3nc(C(F)(F)F)n(C)c3nc2n1C has a melting point of 197 to 199 °C.
In the case of CCS(=O)(=O)c1nc(C(F)(F)F)sc1-c1cn2ccc(C(F)(F)F)cc2n1, the melting point is reported as 126 to 128 °C.
With Cn1c(-c2ncc(C(F)(F)F)cc2S(C)(=O)=O)nc2cc(C(F)(F)F)ncc21 [Compound V12.18, 3-methyl-2-[3-methylsulfonyl-5-(trifluoromethyl)-2-pyridyl]-6-(trifluoromethyl)imidazo[4,5-c]pyridine] the mortality at 200 ppm [8] was at least 80%, the percent effect (mortality or growth inhibition) at 200 ppm [2] was at least 80% and the mortality at 200 ppm [9] was at least 80%.
With CCSc1cc(C(F)(F)F)nnc1-c1nc2cc(C(F)(F)F)cnc2n1C the melting point was 149 to 150 °C and 149 to 156 °C.
CCS(=O)(=O)c1cc(C(F)(F)F)nnc1-c1nc2cc(C(F)(F)F)cnc2n1C gave a melting point of 172 to 174 °C.
